# *1 amine or outer side, *2 acyl side, *3 side chain or, on linkers, in order; H or OH if unused. Where a SMILES comes first, the peptide text is derived from it. Side-chain parts run from the residue outwards. [ ]: non-standard residue; d: D form. N(2S-amino-4-Me-pentyl)Phe = CC(C)C[C@@H](CN([C@@H](Cc1ccccc1)C(=O)[*:2])[*:1])N[*:3]; N(2S-NH-3-Ph-propyl)Phe = O=C([C@H](Cc1ccccc1)N(C[C@H](Cc1ccccc1)N[*:3])[*:1])[*:2]; Nle = CCCC[C@H](N)C(=O)O
# Legend:
# Protease = Protease (Human immunodeficiency virus 1, UniProt Q9YQ12); experiment: Inhibition of HIV-1 NL4-3 wild type protease expressed in Escherichia coli preincubated for 20 mins by FRET analysis
# [1] = Inhibition of HIV-1 multidrug-resistant protease 769 preincubated for 20 mins by FRET analysis; parameters: species or system Human immunodeficiency virus 1
# [2] = test system: Human immunodeficiency virus 1; experiment: Ratio of IC50 for HIV-1 multidrug-resistant protease 769 to IC50 for HIV-1 NL4-3 wild type protease
# Sequence of Protease (Q9YQ12 whole entry): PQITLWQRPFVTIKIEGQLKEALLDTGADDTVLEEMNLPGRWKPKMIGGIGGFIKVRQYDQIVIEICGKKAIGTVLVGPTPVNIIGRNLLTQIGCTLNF
smiles,measurement,setting,value
Cc1cccc(C)c1OCC(=O)N[C@@H](Cc1ccccc1)[C@@H](O)C[C@H](CC(C)C)NC(=O)[C@H](C(C)C)N1CCCNC1=O,IC50,Protease,2.1 nM
same,IC50,[1],6.8 nM
same,Ratio IC50,[2],3.2
CCCC[C@H](NC(=O)CNC(=O)[C@H](CCC(=O)O)NC(=O)[C@H](Cc1ccccc1)NC[C@H](Cc1ccccc1)NC(=O)[C@@H](NC(=O)[C@@H](N)CCCNC(=N)N)C(C)C)C(=O)O (H-[N(2S-NH-3-Ph-propyl)Phe]([Val-Arg])EG[Nle]-OH),IC50,Protease,30.7 nM
same,IC50,[1],142 nM
same,Ratio IC50,[2],4.6
CCCC[C@H](NC(=O)CNC(=O)[C@H](CCC(=O)O)NC(=O)[C@H](Cc1ccccc1)NC[C@H](CC(C)C)NC(=O)[C@@H](NC(=O)[C@@H](N)CCCNC(=N)N)C(C)C)C(=O)O (H-[N(2S-amino-4-Me-pentyl)Phe]([Val-Arg])EG[Nle]-OH),IC50,Protease,2.6 nM
same,IC50,[1],4.4 nM
same,Ratio IC50,[2],1.7
Cc1cccc(C)c1OCC(=O)N[C@@H](Cc1ccccc1)[C@@H](O)C[C@H](Cc1ccccc1)NC(=O)[C@H](C(C)C)N1CCCNC1=O [LOPINAVIR],IC50,[1],16 nM

# Source: ChEMBL document CHEMBL3091441, “Ligand modifications to reduce the relative resistance of multi-drug resistant HIV-1 protease” (Bioorg Med Chem, 2013)
